“And” between values parts separate entries of the source, which are not always exact repeats. Identical values can stand only once.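 The compound was tested at five concentrations on cells cultured in 96-well plates, with a 48-hour exposure period. GI50 = concentration required for 50% inhibition of growth. Definition used: TGI = concentration required for complete inhibition of growth.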
Assays:
Experiment in all cases: growth of human tumour cells (NCI), 48 h
BT-549 breast = system: BT-549 breast
MDA-MB-435 = system: MDA-MB-435
RXF-631 renal = system: RXF-631 renal
DU-145 prostate = system: DU-145 prostate
MDA-N = system: MDA-N

Row | Structure (SMILES) | TGI (BT-549 breast) | GI50 (MDA-MB-435) | TGI (MDA-MB-435) | TGI (RXF-631 renal) | TGI (DU-145 prostate) | GI50 (MDA-N) | TGI (MDA-N) | GI50 (BT-549 breast) | GI50 (DU-145 prostate)
1 | C/C(=N\NC(=S)N1CCC1)c1ccccn1 | 73.3 µM | 0.357 µM | 73.7 µM | > 64.6 µM | > 100 µM | 0.476 µM | > 100 µM | – | –
2 | Nc1ncnc2c1c(-c1ccc(Oc3ccccc3)cc1)nn2CC1SSCC1O (configuration not stated) | 17.1 µM | 0.121 µM | 0.47 µM | – | 9.01 µM | – | – | 7.11 µM | 4.15 µM
3 | O=C(CI)NC(=O)NC(=O)NCc1ccccc1 | 8.17 µM | 3.15 µM | 11.7 µM | – | – | – | – | 2.8 µM | –
4 | NC1=NC(c2ccccc2Cl)c2c(n[nH]c2N)N1 (configuration not stated) | > 100 µM | 15 µM | > 100 µM | – | > 100 µM | – | – | 27.4 µM | 61 µM
5 | N#CN1CC[C@H](C(=O)Nc2ncc(-c3ccccc3)s2)C1 | 0.821 µM | 0.273 µM | 1.73 µM | – | 2.04 µM | – | – | 0.156 µM | 0.814 µM
6 | CCc1c(OC(C)=O)c2c(NC3OC(COC(C)=O)C(OC(C)=O)C(OC(C)=O)C3OC(C)=O)nc(SC)nc2oc1=O (configuration not stated) | – | – | – | > 100 µM | – | – | – | – | –
7 | CC(C)N(C(=O)C12C3C4C1C1C4(C#N)C3C12C(=O)O)C(C)C (configuration not stated) | – | – | – | > 100 µM | – | – | – | – | –
8 | Nc1nc(Cl)c2ncn(Cc3ccc(C45CC6CC(CC(C6)C4)C5)c(OCc4cc(F)c(F)cc4F)c3)c2n1 | 13 µM | 2.98 µM | 17.6 µM | – | 15.7 µM | – | – | 3.86 µM | 4.08 µM
9 | CCc1ccc(Oc2c(-c3ccc(OCc4ccc(Cl)cc4)cc3O)nn(C)c2C(F)(F)F)cc1 | 3.34 µM | 1.06 µM | 2.25 µM | – | 2.27 µM | – | – | 1.56 µM | 0.545 µM
10 | O=C1OC(=O)c2c1nc1ccccc1c2-c1ccccc1 | – | – | – | > 100 µM | – | – | – | – | –
11 | [O-][n+]1c2cccc(O)c2[n+]([O-])c2cccc(O)c21 | > 100 µM | – | > 100 µM | – | > 100 µM | – | > 100 µM | – | –
12 | COc1cc([C@@H]2c3cc4c(cc3[C@H](SC(=N)N)[C@H]3COC(=O)[C@H]23)OCO4)cc(OC)c1OC | – | – | – | – | – | – | – | 2.3 µM | –
13 | CC[n+]1c(-c2ccccc2)c2cc(N)ccc2c2ccc(N)cc21 | 3.01 µM and 3.87 µM | 1.11 µM | 2.56 µM and 12.5 µM | – | 13.3 µM and 42 µM | – | 19 µM | 0.831 µM | 2 µM
14 | O=c1[nH]c(=S)[nH]c(O)c1/C=C1\C=Nc2ccccc21 | 37.4 µM | 2.01 µM | 4.94 µM | – | 35.4 µM | – | – | 9.92 µM | 10.3 µM
15 | CC1CCCP(=O)(c2ccccc2)CCC1 (configuration not stated) | – | – | – | > 100 µM | – | – | – | – | –
16 | O=[N+]([O-])c1cccnc1S(=O)(=O)c1ccccc1 | – | – | – | 8.01 µM | – | – | – | – | –

Row | Structure (SMILES) | TGI (BT-549 breast) | GI50 (MDA-MB-435) | TGI (MDA-MB-435) | TGI (RXF-631 renal) | TGI (DU-145 prostate) | GI50 (MDA-N) | TGI (MDA-N) | GI50 (BT-549 breast) | GI50 (DU-145 prostate)
17 | O=C1Nc2ccc(-c3cccnc3)cc2/C1=C/c1cc(Br)c(O)c(Br)c1 | > 18.9 µM | 4.6 µM | > 21.7 µM | – | > 25 µM | – | – | 6.05 µM | 6.28 µM
18 | CN(C)CCNC(=O)Nc1ccc(N(C)c2ccnc(Nc3ccc(CS(C)(=O)=O)cc3)n2)cc1 | > 25 µM | > 25 µM | > 25 µM | – | > 25 µM | – | – | > 25 µM | > 25 µM
19 | COc1ccc(N(CC(=O)O)N=O)cc1 | > 100 µM | – | > 100 µM | – | > 100 µM | – | > 100 µM | – | –
20 | C/C(=C/CCC(C)[C@@H]1CC[C@]2(C)C3=C(CC[C@@]12C)[C@@]1(C)CCC(=O)C(C)(C)[C@@H]1CC3)C(=O)O (some centres not stated) | 2.45 µM | 1.25 µM | 2.74 µM | – | 2.56 µM | – | – | 1.17 µM | 1.2 µM
21 | CCOC1c2nc3ccccc3nc2-c2ccccc2N1C(C)=O (configuration not stated) | – | – | – | > 100 µM | – | – | – | – | –
22 | OCC1OC(OC2(CO)OC(CO)C(O)C2O)C(O)C(O)C1O (configuration not stated) | > 100 µM | > 100 µM | > 100 µM | – | > 100 µM | – | – | > 100 µM | > 100 µM
23 | CN(C)CCCOc1ccc(NC2=C(Cl)C(=O)C(Nc3ccc(OCCCN(C)C)cc3)=C(Cl)C2=O)cc1 | 3.08 µM | 0.501 µM | 1.05 µM | – | 1.13 µM | – | – | 1.71 µM | 0.563 µM
24 | O=C1C2C(C(=O)N1Cc1ccccc1)N(Cc1ccccc1)C(=O)N2Cc1ccccc1 (configuration not stated) | – | – | – | > 100 µM | – | – | – | – | –
25 | Cc1ccccc1Nc1cc(O)c2c(=O)cc(-c3ccccc3)oc2c1 | > 100 µM | 0.315 µM | 1.93 µM | – | > 100 µM | – | – | 4.03 µM | 3.78 µM
26 | OCc1ccc(-c2ccc(-c3ccc(CO)o3)o2)o1 | > 100 µM | > 100 µM | > 100 µM | – | > 100 µM | – | – | > 100 µM | > 62.4 µM
27 | CCOC(=O)[C@@H](C)C[C@H](Cc1ccccc1)NC(=O)c1csc([C@@H](C[C@H](C(C)C)N(C)C(=O)CNC(=O)[C@H]2CCCCN2C)OC(C)=O)n1 | > 14.3 µM | 0.228 µM | 0.801 µM | – | > 9.17 µM | – | – | 0.891 µM | 0.58 µM
28 | CS(=O)(=O)OCCN1CCN(C(=O)c2ccc(Cl)c3c(Nc4ccc(S(=O)(=O)N=C(N)N)cc4)c4ccccc4nc23)CC1 | – | – | – | > 100 µM | – | – | – | – | –
29 | Cc1ccc(-n2c3nc(=O)n(C)c(=O)c-3nc3ccccc32)c(C)c1 | – | – | – | 23.9 µM | – | – | – | – | –
30 | O=[N+]([O-])/C=C/c1ccc2ccccc2c1 | 7.8 µM | – | 4.58 µM | – | > 35.9 µM | – | – | – | –
31 | COc1cccc(-c2cc(=O)c3cc(N4CCN(C)CC4)ccc3[nH]2)c1 | – | 0.16 µM | 0.554 µM and 0.364 µM | – | – | 0.349 µM | 0.923 µM and 4.25 µM | – | –

— PubChem BioAssay (NCI)
